Reference: patent publication US20230167505A1, “CIRCULATING TUMOR DNA AS A BIOMARKER FOR LEUKEMIA TREATMENT” (Cardiff Oncology, Inc., priority 2020, published 2023)
Where “and” joins values, the source holds several entries; their conditions need not be identical. Equal entries are not always repeated.

Assays:
[1] = test system: R/R AML; assay: Phase 2 anti-leukemic activity, onvansertib with decitabine; format: in vivo, human; details: Phase 2, onvansertib 60 mg/m^2 + decitabine
[2] = test system: patients with relapsed or refractory (R/R) AML
Protocol: Treatment plan and study design: Onvansertib was administered orally, in escalating doses, on days 1 through 5 in combination with either LDAC (arm A, 20 mg/m^2 subcutaneously once daily on days 1 through 10) or decitabine (arm B, 20 mg/m^2 intravenously over 1 hour on days 1 through 5) in a 28-day cycle. […] The primary objectives were to evaluate dose-limiting toxicities (DLTs) and the maximum tolerated dose (MTD) or recommended phase 2 dose (RP2D) of onvansertib. […] Each arm followed a standard 3+3 dose-escalation design, in which onvansertib dose was escalated by 50% increments. […] If a DLT was reported, an additional 3 patients were treated at that dose. If ≥2 patients experienced a DLT, the dose was considered nontolerated, and lower doses were explored in subsequent cohorts. […] The MTD was defined as the highest dose achieved at which no more than one of six subjects experienced a DLT. The RP2D was determined based on the assessment of safety, pharmacokinetics, and preliminary efficacy in subjects treated at a dose cleared for safety. For the study, the primary endpoint was to evaluate first-cycle dose-limiting toxicities and the MTD. Secondary and exploratory endpoints included safety, pharmacokinetics, antileukemic activity, and response biomarkers.
Safety: Patients were evaluable for safety if they had received at least one dose of onvansertib. […] Investigators assessed causality as either unrelated, unlikely, possibly, probably, or definitely related to study drugs. DLTs (defined in Table 1) were evaluated during the first cycle of treatment.

[3] = all patients (N = 40), onvansertib + LDAC or decitabine, patients n (%)
[4] = phase Ib, onvansertib + LDAC or decitabine

CN1CCN(c2ccc(OC(F)(F)F)c(Nc3ncc4c(n3)-c3c(c(C(N)=O)nn3CCO)CC4)c2)CC1 [onvansertib, 1-(2-hydroxyethyl)-8-{[5-(4-methylpiperazin-1-yl)-2-(trifluoromethoxy)phenyl]amino}-4,5-dihydro-1H-pyrazolo [4,3-h] quinazoline-3-carboxamide]
CR/CRi rate [1]: 17% | G3 stomatitis possibly related to onvansertib ([2]; 3 patients: one at 60 mg/m^2, two at 90 mg/m^2): 8% | patients discontinued from therapy because of treatment-related AEs ([2]; G2 fatigue, G3 mucositis (DLT), G4 rash (DLT)): Three | Treatment-emergent AE: Anemia, All grades (%) [2, 3]: 15 (37.5) % | Treatment-emergent AE: Anemia, Grade 1-2 (%) [2, 3]: 1 (2.5) % | Treatment-emergent AE: Blood bilirubin increased, All grades (%) [2, 3]: 4 (10) % | Treatment-emergent AE: Blood bilirubin increased, Grace 3-4 (%) [2, 3]: 1 (2.5) % | Treatment-emergent AE: Blood bilirubin increased, Grade 1-2 (%) [2, 3]: 3 (7.5) % | Treatment-emergent AE: Constipation, All grades (%) [2, 3]: 6 (15) % | Treatment-emergent AE: Constipation, Grade 1-2 (%) [2, 3]: 6 (15) % | Treatment-emergent AE: Cough, All grades (%) [2, 3]: 6 (15) % | Treatment-emergent AE: Cough, Grade 1-2 (%) [2, 3]: 6 (15) % | Treatment-emergent AE: Decreased appetite, All grades (%) [2, 3]: 6 (15) % | Treatment-emergent AE: Decreased appetite, Grade 1-2 (%) [2, 3]: 6 (15) % | Treatment-emergent AE: Diarrhea, All grades (%) [2, 3]: 8 (20) % | Treatment-emergent AE: Diarrhea, Grade 1-2 (%) [2, 3]: 8 (20) % | Treatment-emergent AE: Dizziness, All grades (%) [2, 3]: 5 (12.5) % | Treatment-emergent AE: Dizziness, Grade 1-2 (%) [2, 3]: 5 (12.5) % | Treatment-emergent AE: Dyspnea, All grades (%) [2, 3]: 10 (25) % | Treatment-emergent AE: Dyspnea, Grace 3-4 (%) [2, 3]: 2 (5) % | Treatment-emergent AE: Dyspnea, Grade 1-2 (%) [2, 3]: 8 (20) % | Treatment-emergent AE: Edema, All grades (%) [2, 3]: 8 (20) % | Treatment-emergent AE: Edema, Grace 3-4 (%) [2, 3]: 2 (5) % | Treatment-emergent AE: Edema, Grade 1-2 (%) [2, 3]: 6 (15) % | Treatment-emergent AE: Epistaxis, All grades (%) [2, 3]: 6 (15) % | Treatment-emergent AE: Epistaxis, Grade 1-2 (%) [2, 3]: 6 (15) % | Treatment-emergent AE: Fatigue, All grades (%) [2, 3]: 14 (35) % | Treatment-emergent AE: Fatigue, Grade 1-2 (%) [2, 3]: 14 (35) % | Treatment-emergent AE: Febrile neutropenia, All grades (%) [2, 3]: 12 (30) % | Treatment-emergent AE: Headache, All grades (%) [2, 3]: 4 (10) % | Treatment-emergent AE: Headache, Grade 1-2 (%) [2, 3]: 4 (10) % | Treatment-emergent AE: Leukopenia, All grades (%) [2, 3]: 5 (12.5) % | Treatment-emergent AE: Leukopenia, Grace 3-4 (%) [2, 3]: 12.5% and 5 (12.5) % | Treatment-emergent AE: Lung infection, All grades (%) [2, 3]: 4 (10) % | Treatment-emergent AE: Lung infection, Grace 3-4 (%) [2, 3]: 4 (10) % | Treatment-emergent AE: Nausea/vomiting, All grades (%) [2, 3]: 12 (30) % | Treatment-emergent AE: Nausea/vomiting, Grade 1-2 (%) [2, 3]: 12 (30) % | Treatment-emergent AE: Neutropenia, All grades (%) [2, 3]: 10 (25) % | Treatment-emergent AE: Oropharyngeal pain, All grades (%) [2, 3]: 4 (10) % | Treatment-emergent AE: Oropharyngeal pain, Grade 1-2 (%) [2, 3]: 4 (10) % | Treatment-emergent AE: Pyrexia, All grades (%) [2, 3]: 5 (12.5) % | Treatment-emergent AE: Pyrexia, Grade 1-2 (%) [2, 3]: 5 (12.5) % | Treatment-emergent AE: Rash/pruritus, All grades (%) [2, 3]: 11 (27.5) % | Treatment-emergent AE: Rash/pruritus, Grace 3-4 (%) [2, 3]: 1 (2.5) % | Treatment-emergent AE: Rash/pruritus, Grade 1-2 (%) [2, 3]: 10 (25) % | Treatment-emergent AE: Stomatitis, All grades (%) [2, 3]: 9 (22.5) % | Treatment-emergent AE: Stomatitis, Grace 3-4 (%) [2, 3]: 12.5% and 5 (12.5) % | Treatment-emergent AE: Stomatitis, Grade 1-2 (%) [2, 3]: 4 (10) % | Treatment-emergent AE: Thrombocytopenia, All grades (%) [2, 3]: 12 (30) % | Treatment-emergent AE: Thrombocytopenia, Grade 1-2 (%) [2, 3]: 2 (5) % | G3 and G4 AE possibly related to onvansertib: anemia ([2]; all patients, N = 40): 12.5% | G3 and G4 AE possibly related to onvansertib: leukopenia ([2]; all patients, N = 40): 5% | G3 and G4 AE possibly related to onvansertib: neutropenia ([2]; all patients, N = 40): 15% | G3 and G4 AE possibly related to onvansertib: thrombocytopenia ([2]; all patients, N = 40): 12.5% | patients experiencing a DLT during the first cycle ([2]; arm B (decitabine), dose level 6 (90 mg/m^2), grade 3 mucositis and grade 4 rash): 2 of 6 and 2 of the 6 | MTD of onvansertib in combination with decitabine ([2]; arm B, oral days 1-5 + decitabine 20 mg/m^2 IV days 1-5, 28-day cycle): 60 mg/m^2 | DLTs ([2]; first five dose levels (12-60 mg/m^2), both arms (LDAC, decitabine)): no DLTs reported | tolerability ([2]; first five dose levels (12-60 mg/m^2), with LDAC or decitabine): well tolerated | skin toxicities ([2]; higher incidence and higher grade at 90 mg/m^2): observed at the last two dose levels of onvansertib (60 and 90 mg/m^2) | SAEs considered as possibly related to onvansertib ([2]; of 71 SAEs): 13% | patients with dose reduction of onvansertib due to hematologic toxicities ([2]; one from 18 mg/m^2, one from 27 mg/m^2 dose level): Two | patients with SAEs ([2]; phase Ib, both arms): 33 patients | total serious AEs (SAE) reported ([2]; phase Ib, both arms): 71 | Serious adverse event Aphasia: Number of events [2, 4]: 1 | Serious adverse event Aphasia: Number of patients [2, 4]: 1 | Serious adverse event Appendicitis: Number of events [2, 4]: 1 | Serious adverse event Appendicitis: Number of patients [2, 4]: 1 | Serious adverse event Arthralgia: Number of events [2, 4]: 1 | Serious adverse event Arthralgia: Number of patients [2, 4]: 1 | Serious adverse event Asthenia: Number of events [2, 4]: 1 | Serious adverse event Asthenia: Number of patients [2, 4]: 1 | Serious adverse event Atrial fibrillation: Number of events [2, 4]: 1 | Serious adverse event Atrial fibrillation: Number of patients [2, 4]: 1 | Serious adverse event Back pain: Number of events [2, 4]: 1 | Serious adverse event Back pain: Number of patients [2, 4]: 1 | Serious adverse event Disease progression: Number of events [2, 4]: 1 | Serious adverse event Disease progression: Number of patients [2, 4]: 1 | Serious adverse event Dyspnea: Number of events [2, 4]: 1 | Serious adverse event Dyspnea: Number of patients [2, 4]: 1 | Serious adverse event Edema peripheral: Number of events [2, 4]: 1 | Serious adverse event Edema peripheral: Number of patients [2, 4]: 1 | Serious adverse event Face edema: Number of events [2, 4]: 1 | Serious adverse event Face edema: Number of patients [2, 4]: 1 | Serious adverse event Febrile neutropenia: Number of events [2, 4]: 25 | Serious adverse event Febrile neutropenia: Number of patients [2, 4]: 17 | Serious adverse event Hematuria: Number of events [2, 4]: 1 | Serious adverse event Hematuria: Number of patients [2, 4]: 1 | Serious adverse event Hemorrhage intracranial: Number of events [2, 4]: 1 | Serious adverse event Hemorrhage intracranial: Number of patients [2, 4]: 1 | Serious adverse event Hyponatremia: Number of events [2, 4]: 1 | Serious adverse event Hyponatremia: Number of patients [2, 4]: 1 | Serious adverse event Infusion related reaction: Number of events [2, 4]: 1 | Serious adverse event Infusion related reaction: Number of patients [2, 4]: 1 | Serious adverse event Leukemic infiltration: Number of events [2, 4]: 1 | Serious adverse event Leukemic infiltration: Number of patients [2, 4]: 1 | Serious adverse event Lower gastrointestinal hemorrhage: Number of events [2, 4]: 1 | Serious adverse event Lower gastrointestinal hemorrhage: Number of patients [2, 4]: 1 | Serious adverse event Lung consolidation: Number of events [2, 4]: 1 | Serious adverse event Lung consolidation: Number of patients [2, 4]: 1 | Serious adverse event Lung infection: Number of events [2, 4]: 5 | Serious adverse event Lung infection: Number of patients [2, 4]: 5 | Serious adverse event Neck pain: Number of events [2, 4]: 1 | Serious adverse event Neck pain: Number of patients [2, 4]: 1 | Serious adverse event Neutrophil count decreased: Number of events [2, 4]: 1 | Serious adverse event Neutrophil count decreased: Number of patients [2, 4]: 1 | Serious adverse event Pain in jaw: Number of events [2, 4]: 1 | Serious adverse event Pain in jaw: Number of patients [2, 4]: 1 | Serious adverse event Palmar-plantar erythrodysaesthesia syndrome: Number of events [2, 4]: 1 | Serious adverse event Palmar-plantar erythrodysaesthesia syndrome: Number of patients [2, 4]: 1 | Serious adverse event Pharyngeal edema: Number of events [2, 4]: 1 | Serious adverse event Pharyngeal edema: Number of patients [2, 4]: 1 | Serious adverse event Physical deconditioning: Number of events [2, 4]: 1 | Serious adverse event Physical deconditioning: Number of patients [2, 4]: 1 | Serious adverse event Pleural effusion: Number of events [2, 4]: 1 | Serious adverse event Pleural effusion: Number of patients [2, 4]: 1 | Serious adverse event Pneumonia fungal: Number of events [2, 4]: 1 | Serious adverse event Pneumonia fungal: Number of patients [2, 4]: 1 | Serious adverse event Pneumonia: Number of events [2, 4]: 3 | Serious adverse event Pneumonia: Number of patients [2, 4]: 3 | Serious adverse event Pulmonary mass: Number of events [2, 4]: 1 | Serious adverse event Pulmonary mass: Number of patients [2, 4]: 1 | Serious adverse event Pyrexia: Number of events [2, 4]: 2 | Serious adverse event Pyrexia: Number of patients [2, 4]: 2 | Serious adverse event Rash maculo-papular: Number of events [2, 4]: 1 | Serious adverse event Rash maculo-papular: Number of patients [2, 4]: 1 | Serious adverse event Septic shock: Number of events [2, 4]: 1 | Serious adverse event Septic shock: Number of patients [2, 4]: 1 | Serious adverse event Seroma: Number of events [2, 4]: 1 | Serious adverse event Seroma: Number of patients [2, 4]: 1 | Serious adverse event Skin lesion: Number of events [2, 4]: 1 | Serious adverse event Skin lesion: Number of patients [2, 4]: 1 | Serious adverse event Soft tissue infection: Number of events [2, 4]: 1 | Serious adverse event Soft tissue infection: Number of patients [2, 4]: 1 | Serious adverse event Staphylococcal bacteremia: Number of events [2, 4]: 1 | Serious adverse event Staphylococcal bacteremia: Number of patients [2, 4]: 1 | Serious adverse event Stomatitis: Number of events [2, 4]: 1 | Serious adverse event Stomatitis: Number of patients [2, 4]: 1 | Serious adverse event Tumor lysis syndrome: Number of events [2, 4]: 1 | Serious adverse event Tumor lysis syndrome: Number of patients [2, 4]: 1 | Serious adverse event Urine output decreased: Number of events [2, 4]: 1 | Serious adverse event Urine output decreased: Number of patients [2, 4]: 1 | deaths while on treatment ([2]; phase Ib, all related to AML or its complications): Three
